Data on 21 compounds can be found in US8188143B2, “Pharmaceutical composition useful as acetylcholinesterase inhibitors” (Council of Scientific and Industrial Research, priority 2006, dated 2012).

Test [1] addresses T1, Acetylcholinesterase (AChE) (Rattus norvegicus, UniProt P37136).
T1 construct: Aliquots of this supernatant was diluted in the ratio of 1:10 and used as a source of enzyme for the assay; from tissue; host or cells: whole brain of adult male SD rats; 100,000 x g supernatant of a 10% homogenate with Triton X-100
Nature of the test: Acetylcholinesterase (AChE) assay in brain (in vitro), Ellman method. It is filed as biochemical. The method, then:
Acetylcholinesterase (AChE) Assay in Brain (In Vitro)
The study was conducted in adult SD male rats (200-250 g). The rats were perfused under mild ether anesthesia through heart with ice cooled normal saline (0.9% NaCl) to reduce blood-borne cholinesterase from the brain. After perfusion the whole brain was taken out. A 10% (w/v) homogenate of brain was prepared first by homogenizing in an Ultra-Turrax T25 homogenizer at a speed of 9500 rpm thrice giving intervals for few seconds in between the runs, with sodium phosphate buffer (30 mmol/lit, pH 7.0). Sodium phosphate buffer was taken in a volume half to the final volume required for 10% homogenate.
1% Triton X-100 (1% w/v in 30 mmol/lit. sodium phosphate buffer, pH 7.0) is then added in a volume to make the final volume for 10% homogenate, slowly while stirring the homogenate on ice. The homogenate was centrifuged at 100,000×g at 4° C. in a Beckman Ultracentrifuge (LE 80) using a fixed angle rotor (80 Ti) for 60 min. Supernatant was collected and stored at 4° C. Aliquots of this supernatant was diluted in the ratio of 1:10 and used as a source of enzyme for the assay.
The assay of AChE was performed according to method described by Ellman et al. A kinetic profile of the enzyme activity was studied spectrophotometrically at 412 nm at an interval of 15 s. The assay for each sample was run in duplicate and each experiment was performed thrice. The specific activity of AChE is expressed in μmoles/min/mg of protein. The test substance (dissolved in DMSO) was incubated with enzyme source in concentration of 100 μg/1 ml of reaction mixture for 30 min at 37° C. prior to obtain kinetic profile of AChE activity. The AChE inhibitory activity was calculated on the basis of % decrease change from control values.
Protein was estimated in the brain samples by modified Lowry's method. Bovine serum albumin (BSA) was used as standard in the concentration of 1 mg/ml. was estimated in the range of 0.01-0.1 mg/ml. […]
For orientation: DTNB colorimetry detects thiols as they appear.

Test [2] concerns Scopolamine induced deficit in passive avoidance test in mice. Nature of the test: Single trial passive avoidance test, scopolamine induced deficit (in vivo). Particulars: for TLT on 2nd trial as compared to 1st trial after scopolamine: mice pretreated po x 3 days (100 mg/kg FIG. 1a; 50 mg/kg FIG. 1b), scopolamine 5 min prior to 1st trial; for In Vivo (passive avoidance test, significance of TLT increase): scopolamine induced deficit, oral for 3 days; for In Vivo (passive avoidance test, significance of TLT increase) / effectiveness in passive avoidance test (in vivo), in words: mice; for effectiveness in passive avoidance test (in vivo), in words: scopolamine induced memory deficit. The protocol: Single trial passive avoidance is widely used as experimental test to assess learning memory functions in rodents. Scopolamine induced impairment in passive avoidance (in vivo) and inhibition of acetylcholinesterase (in vitro) in rodents are commonly employed and screening test to predict potential of an acetylcholinesterase inhibitor as cognitive enhancer (anti-dementic) drug.
Passive Avoidance Test (In Vivo):
The study was conducted in adult Swiss male mice of 3-4 months (wt. 20-25 g) were kept in standard housing condition with 12 h light and dark cycle. The food and water were available ad libitum.
The mice were subjected to single trial passive avoidance test as described by Brioni.
The passive avoidance test was studied by a computerized shuttle box (Columbus Instruments, Ohio, USA) provided with a software program PACS 30. The shuttle box is comprised of two compartments. An automated door was used to isolate the compartments. After an exploration period of 30 s for acclimatization the animal was subjected to a trial of 270 seconds. Each mouse was placed in the bright compartment and on transfer into the dark compartment it was given an electric shock (0.5 mA for 5 s) through floor grid. The transfer of mice from the bright to dark compartment was recorded as transfer latency time (TLT) in seconds. TLT was recorded in control and treated groups (1st Trial, acquisition) and then after 24 h (2nd Trial, retention). An increase in the TLT on 2nd Trial (retention) as compared to 1st Trial (acquisition) was taken as the criterion for successful learning and memory (cognitive activity).
Scopolamine Induced Deficit (Dementia)
Scopolamine, a muscarinic antagonist known to produce impairment in cognitive functions (dementia) in human as well as in experimental animals, was used to produce deficit (no significant increase on 2nd trial) in passive avoidance learning. Scopolamine was administered 5 min prior to 1st trial. Reversal of scopolamine induced deficit i.e. significant increase in 2nd trial by test substance indicates potential anti-dementia activity. […].
The test substance Columbianetin was administered orally in dose of 100 m/kg (1% aqueous suspension in gum acacia) for 3 days. The treated animals were subjected to 1st trial after 60 min of 3rd dose of test substance. Scopolamine was administered 5 min prior to 1st trial in test group.
The control group received 1 ml/kg of vehicle (1% aqueous suspension in gum acacia) orally for 3 days. Among the control mice half (n=5) received scopolamine 5 min prior to 1st trial (Control—dementia) and the remaining half were subjected to passive avoidance test (Control—trained).
Level of p value<0.05 indicates statistically significant difference.
Mean values and standard error (S.E.) of mean were calculated for TLT and specific activity of AChE in the different regions of brain samples of each group. The significance of difference between the values of AChE activity and TLT of two groups was determined by one-way ANOVA test that followed by Dunnett's test.

Test [3] has the same test system. The test is described as above. Particulars: po + scopolamine, % increase in TLT of 2nd trial from TLT of 1st trial.
Setting [4] is: 0.5 h; 100 μg/1 ml of reaction mixture, incubated 30 min at 37° C., rat brain enzyme source; read-out: In Vitro %) (AChE inhibitory activity, % decrease change from control).

Entries after “also recorded” stand apart in the source; their conditions may differ. Read-outs that look alike come from different tables or passages of the source.

T1 sequence (P37136 32-614): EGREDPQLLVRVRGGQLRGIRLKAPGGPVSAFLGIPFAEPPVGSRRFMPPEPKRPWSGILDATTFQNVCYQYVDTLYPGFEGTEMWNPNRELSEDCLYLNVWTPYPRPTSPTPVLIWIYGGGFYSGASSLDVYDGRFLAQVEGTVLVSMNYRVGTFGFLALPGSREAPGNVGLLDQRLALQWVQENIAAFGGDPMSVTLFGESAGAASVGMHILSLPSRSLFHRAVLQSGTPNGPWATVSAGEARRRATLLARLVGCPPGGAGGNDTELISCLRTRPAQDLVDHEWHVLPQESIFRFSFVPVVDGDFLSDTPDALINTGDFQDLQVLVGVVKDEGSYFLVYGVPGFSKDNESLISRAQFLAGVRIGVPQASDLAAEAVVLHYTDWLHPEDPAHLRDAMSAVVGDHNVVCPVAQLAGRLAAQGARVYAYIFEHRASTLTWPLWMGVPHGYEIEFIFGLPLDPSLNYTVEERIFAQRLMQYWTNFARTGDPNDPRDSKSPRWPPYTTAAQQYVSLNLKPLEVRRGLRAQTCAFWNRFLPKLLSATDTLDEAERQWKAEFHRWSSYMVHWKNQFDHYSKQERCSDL

With `CC(=O)Oc1ccc2c(C)cc(=O)oc2c1` [4-Methyl-7-acetyloxycoumarin], in test [1] (setting [4]), the inhibition at 100 µg/mL came to 23.9%. In test [2], the “TLT on 2nd trial as compared to 1st trial after scopolamine” value is listed as “significant increase in TLT on 2nd trial” and the “In Vivo (passive avoidance test, significance of TLT increase)” value is recorded as “Significant activity (P < 0.01)”.

As to `C#CC(C)(C)c1ccc2ccc(=O)oc2c1` [7-Dimethylpropargylcoumarin], the “In Vivo (passive avoidance test, significance of TLT increase)” value in test [2] was “No significant activity”.

As for `CC(C)=CCc1cc2ccc(=O)oc2cc1O` [7-Hydroxy-6-prenylcoumarin], in test [1] (0.5 h, read-out: In Vitro %) (AChE inhibitory activity, % decrease change from control)), the inhibition at 100 µg/mL was determined as 42.2%. Further, the “In Vivo (passive avoidance test, significance of TLT increase)” value in test [2] is on record as “No significant activity”.

For `Cc1cc(=O)oc2c(OCc3ccccc3)c(OCc3ccccc3)ccc12` [4-Methyl-7,8-dibenzyloxycoumarin], in test [1] (setting [4]), the inhibition at 100 µg/mL is 24.1%. In addition, the “In Vivo (passive avoidance test, significance of TLT increase)” value in test [2] is reported as “No significant activity”.

On to `O=c1ccc2ccc(OCc3ccccc3)cc2o1` [7-Benzyloxycoumarin], for which, in test [2], the “TLT on 2nd trial as compared to 1st trial after scopolamine” value was “significant increase in TLT on 2nd trial” and the “In Vivo (passive avoidance test, significance of TLT increase)” value is “Significant activity”.

As to `COc1ccc2c(C)cc(=O)oc2c1OC` [4-Methyl-7,8-dimethoxycoumarin], the inhibition at 100 µg/mL in test [1] (setting [4]) is 14.2%. In addition, the “In Vivo (passive avoidance test, significance of TLT increase)” value in test [2] is on record as “No significant activity”.

In the case of `CC(C)=CCc1c(O)ccc2ccc(=O)oc12` [7-Hydroxy-8-prenylcoumarin], in test [2], the “In Vivo (passive avoidance test, significance of TLT increase)” value is reported as “No significant activity”.

In the case of `CC(C)(O)[C@@H]1Cc2c(ccc3ccc(=O)oc23)O1` [Columbianetin], the inhibition at 100 µg/mL in test [1] (setting [4]) turned out to be 13.9%. For the same compound, the “In Vivo (passive avoidance test, significance of TLT increase)” value in test [2] is listed as “No significant activity”.

For `COc1cc2c(cc1OC)C(=O)C(CC1CCN(Cc3ccccc3)CC1)C2` (centres unmarked) [Donepezil, reference compound], the “% Memory retention” value in test [3] (Standard drug Donepezil 10 mg/kg) stood at 288%.

For `CC(=O)Oc1ccc2ccc(=O)oc2c1` [7-Acetyloxycoumarin], the “% Memory retention” value in test [3] (AP20am samples 50 mg/kg) came to 321%. The inhibition at 100 µg/mL in test [1] (setting [4]) stood at 39.1%. Besides, in test [2], the “TLT on 2nd trial as compared to 1st trial after scopolamine” value is “significant increase in TLT on 2nd trial”; the “In Vivo (passive avoidance test, significance of TLT increase)” value is given as “High significant activity”; the “effectiveness in passive avoidance test (in vivo), in words” value (“effectiveness in passive avoidance test” below) was “most effective; also recorded: effective”.

As for `CC(C)(O)[C@@H]1Cc2cc3ccc(=O)oc3cc2O1` (racemic) [(±) Marmesin], the “In Vitro %) (AChE inhibitory activity, % decrease change from control)” value in test [1] (100 μg/1 ml of reaction mixture, incubated 30 min at 37° C., rat brain enzyme source) is reported as 23.91%. The “In Vivo (passive avoidance test, significance of TLT increase)” value in test [2] is recorded as “Significant activity (P < 0.01)”.

Take `CC(=O)Oc1ccc2c(C)cc(=O)oc2c1OC(C)=O` [4-Methyl-7,8-diacetyloxycoumarin]: the inhibition at 100 µg/mL in test [1] (setting [4]) came out at 24%. Besides, the “In Vivo (passive avoidance test, significance of TLT increase)” value in test [2] is on record as “No significant activity”.

As for `COc1ccc2c(C)cc(=O)oc2c1` [4-Methyl-7-methoxycoumarin], in test [1] (setting [4]), the inhibition at 100 µg/mL came to 48.9%. Moreover, in test [2], the “In Vivo (passive avoidance test, significance of TLT increase)” value is “No significant activity” and the “effectiveness in passive avoidance test” value is reported as “effective”.

As to `C=CCOc1ccc2ccc(=O)oc2c1` [7-Allyloxycoumarin], in test [2], the “TLT on 2nd trial as compared to 1st trial after scopolamine” value is listed as “significant increase in TLT on 2nd trial” and the “In Vivo (passive avoidance test, significance of TLT increase)” value is “Significant activity (P < 0.05)”.

Take `CC1(C)CCc2cc3ccc(=O)oc3cc2O1` [Dihydroxanthyletin]: the inhibition at 100 µg/mL in test [1] (setting [4]) stood at 37.8%. The “In Vivo (passive avoidance test, significance of TLT increase)” value in test [2] was “No significant activity”.

Consider `CC(C)=CCOc1ccc2ccc(=O)oc2c1` [7-Prenyloxycoumarin], for which, in test [2], the “In Vivo (passive avoidance test, significance of TLT increase)” value is “No significant activity”.

In the case of `CC1(C)C=Cc2c(ccc3ccc(=O)oc23)O1` [Seselin], the “In Vivo (passive avoidance test, significance of TLT increase)” value in test [2] is reported as “No significant activity”.

In the case of `O=c1ccc2ccc(O)cc2o1` [7-Hydroxycoumarin], the “In Vivo (passive avoidance test, significance of TLT increase)” value in test [2] is reported as “No significant activity”.

Consider `COc1ccc2ccc(=O)oc2c1` [7-Methoxycoumarin], for which the “% Memory retention” value in test [3] (AP20am samples 50 mg/kg) amounted to 295%. The inhibition at 100 µg/mL in test [1] (setting [4]) was 25.2%. Also, in test [2], the “TLT on 2nd trial as compared to 1st trial after scopolamine” value is “significant increase in TLT on 2nd trial”; the “In Vivo (passive avoidance test, significance of TLT increase)” value was “High significant activity”; the “effectiveness in passive avoidance test” value is “most effective”.

Consider `Cc1cc(=O)oc2cc(O)ccc12` [4-Methyl-7-hydroxycoumarin], for which the “% Memory retention” value in test [3] (AP20am samples 50 mg/kg) came to 376%. Further, the inhibition at 100 µg/mL in test [1] (setting [4]) stood at 17.4%. For the same compound, in test [2], the “TLT on 2nd trial as compared to 1st trial after scopolamine” value was “significant increase in TLT on 2nd trial”; the “In Vivo (passive avoidance test, significance of TLT increase)” value was “High significant activity”; the “effectiveness in passive avoidance test” value is on record as “most effective”.

With `Cc1cc(=O)oc2c(O)c(O)ccc12` [4-Methyl-7,8-dihydroxycoumarin], the inhibition at 100 µg/mL in test [1] (setting [4]) came to 14.1%. In test [2], the “In Vivo (passive avoidance test, significance of TLT increase)” value is recorded as “No significant activity”.
